Measurements: the supplement of paper PMC10307832

Assays:
Experiment in all cases: relative viability (nuclei count vs DMSO), 5 days (fraction); higher = more cells survive
Motesanib + OSI-027 = compound: CC1(C)CNc2cc(NC(=O)c3cccnc3NCc3ccncc3)ccc21 [Motesanib] + COc1cccc2cc(-c3nc([C@H]4CC[C@H](C(=O)O)CC4)n4ncnc(N)c34)[nH]c12 [OSI-027] (partner 0.5 µM)
Summary of the method: (§1)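 Medians of duplicate plates are given as relative viability. That measure is the nuclei count in treated wells divided by the count in vehicle wells. Counts were taken on 4× images of lung cancer cell lines in 1536-well plates, 5 days after pin-tool dosing the day after seeding with one drug alone or a fixed anchor-drug dose plus five library-drug doses (not always all listed) in √10 steps.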

Motesanib + Crizotinib = compound: CC1(C)CNc2cc(NC(=O)c3cccnc3NCc3ccncc3)ccc21 [Motesanib] + C[C@@H](Oc1cc(-c2cnn(C3CCNCC3)c2)cnc1N)c1c(Cl)ccc(F)c1Cl [Crizotinib] (partner 1 µM)
Summary of the method: as §1

Motesanib + Decitabine = compound: CC1(C)CNc2cc(NC(=O)c3cccnc3NCc3ccncc3)ccc21 [Motesanib] + Nc1ncn([C@H]2C[C@H](O)[C@@H](CO)O2)c(=O)n1 [Decitabine] (partner 2 µM)
Summary of the method: as §1

[1] = compound: C[C@@]1(C(=O)Nc2ccc(F)nc2)CCCN1c1nc(Nc2cc(C3CC3)n[nH]2)c2cccn2n1 + COc1cccc2cc(-c3nc([C@H]4CC[C@H](C(=O)O)CC4)n4ncnc(N)c34)[nH]c12 [OSI-027] (partner 0.5 µM)
Summary of the method: as §1

Row | Cell Line | relative viability (Motesanib + OSI-027; first compound 0.01 µM) | relative viability (Motesanib + OSI-027; first compound 0.03162 µM) | relative viability (Motesanib + OSI-027; first compound 0.1 µM) | relative viability (Motesanib + OSI-027; first compound 0.3162 µM) | relative viability (Motesanib + OSI-027; first compound 1 µM) | relative viability (Motesanib + Crizotinib; first compound 0.01 µM) | relative viability (Motesanib + Crizotinib; first compound 0.03162 µM) | relative viability (Motesanib + Crizotinib; first compound 0.1 µM) | relative viability (Motesanib + Crizotinib; first compound 0.3162 µM) | relative viability (Motesanib + Crizotinib; first compound 1 µM) | relative viability (Motesanib + Decitabine; first compound 0.01 µM) | relative viability (Motesanib + Decitabine; first compound 0.03162 µM) | relative viability (Motesanib + Decitabine; first compound 0.1 µM) | relative viability (Motesanib + Decitabine; first compound 0.3162 µM) | relative viability (Motesanib + Decitabine; first compound 1 µM) | relative viability ([1]; first compound 0.04 µM) | relative viability ([1]; first compound 0.1265 µM) | relative viability ([1]; first compound 0.4 µM) | relative viability ([1]; first compound 1.265 µM)
1 | NCI-H1755 | 0.661 | 0.682 | 0.746 | 0.826 | 0.652 | 0.862 | 0.867 | 0.893 | 0.91 | 0.882 | 0.775 | 0.838 | 0.864 | 0.905 | 0.913 | 0.695 | 0.355 | 0.589 | 0.484
2 | HCC-78 | 0.343 | 0.348 | 0.405 | 0.345 | 0.297 | 0.378 | 0.352 | 0.37 | 0.326 | 0.384 | 0.657 | 0.654 | 0.808 |  | 0.817 | 0.377 | 0.308 | 0.298 | 0.323
3 | IA-LM |  |  |  |  |  | 0.829 | 0.745 | 1.21 | 0.729 | 0.803 |  |  |  |  |  |  |  |  | 
4 | NCI-H322M | 0.471 | 0.584 | 0.506 | 0.584 | 0.566 | 1.06 | 0.835 | 1.04 | 0.974 | 0.946 | 0.688 | 0.672 | 0.707 | 0.685 | 0.777 | 0.483 | 0.364 | 0.363 | 0.321
5 | NCI-H3122 | 0.836 | 0.962 | 0.933 | 1.08 | 1.23 | 0.253 | 0.27 | 0.285 | 0.295 | 0.267 | 0.436 | 0.409 | 0.422 | 0.548 | 0.614 | 0.499 | 0.86 | 0.275 | 0.412
6 | COR-L23 | 0.788 | 0.721 | 0.874 | 0.753 | 0.806 | 0.512 | 0.639 | 0.703 | 0.643 | 0.547 | 0.477 | 0.456 | 0.491 | 0.468 | 0.519 | 0.656 | 0.53 | 0.518 | 0.461
7 | NCI-H2087 | 0.427 | 0.544 | 0.585 | 0.705 | 0.573 | 0.686 | 0.983 | 0.951 | 0.878 | 0.93 |  |  | 0.343 | 0.259 | 0.367 | 0.366 | 0.254 | 0.267 | 0.338
8 | LC-2-ad | 0.927 | 0.948 | 0.872 | 0.803 | 0.716 | 0.442 | 0.46 |  | 0.441 | 0.484 | 0.776 | 0.758 | 0.776 | 0.772 | 0.753 | 0.601 | 0.458 | 0.405 | 0.392
9 | NCI-H1915 | 0.575 | 0.72 | 0.625 | 0.631 | 0.632 | 0.897 | 0.851 | 0.875 | 0.927 | 0.947 | 0.272 | 0.262 | 0.36 | 0.306 | 0.383 | 0.612 | 0.628 | 0.592 | 0.604
10 | NCI-H1793 | 0.26 | 0.272 | 0.261 | 0.284 | 0.302 |  |  |  |  |  | 0.561 | 0.539 | 0.663 | 0.755 | 0.589 | 0.254 | 0.195 |  | 0.196
11 | NCI-H2023 | 0.453 | 0.374 | 0.373 | 0.404 | 0.429 | 0.711 | 0.592 | 0.747 | 0.571 | 0.711 | 0.23 | 0.226 | 0.281 | 0.25 | 0.347 | 0.3 | 0.088 | 0.105 | 0.116
12 | COR-L 105 | 0.768 | 0.7 | 0.717 | 0.689 | 0.626 | 0.981 | 0.739 | 0.743 | 0.73 | 0.756 | 0.643 | 0.683 | 0.72 | 0.739 | 0.705 | 0.627 | 0.377 | 0.31 | 0.408
13 | RERF-LC-KJ | 0.637 | 0.565 | 0.582 | 0.59 | 0.593 | 0.87 | 0.762 | 0.878 | 0.768 | 0.879 | 0.652 | 0.752 | 0.719 | 0.67 | 0.665 | 0.51 | 0.306 | 0.334 | 0.346
14 | NCI-H2342 | 0.555 | 0.654 | 0.672 | 0.505 | 0.637 |  |  |  |  |  | 0.765 | 0.608 | 0.759 | 0.765 | 0.9 | 0.636 | 0.561 | 0.448 | 0.479
15 | NCI-H1299 |  |  |  |  |  | 0.938 | 0.978 | 0.951 | 0.949 | 0.936 |  |  |  |  |  |  |  |  | 
16 | SW 900 | 0.65 | 0.515 | 0.651 | 0.61 | 0.656 |  |  |  |  |  | 0.58 | 0.475 | 0.632 | 0.677 | 0.749 | 0.549 | 0.518 | 0.464 | 0.551
17 | NCI-H1648 | 0.275 | 0.283 | 0.268 | 0.275 | 0.295 |  |  |  |  |  | 0.498 |  |  | 0.531 | 0.42 | 0.25 |  |  | 0.229
18 | NCI-H522 | 0.741 | 0.585 | 0.417 | 0.659 | 0.732 |  |  |  |  |  | 0.615 | 0.675 | 0.639 | 0.725 | 0.691 | 0.589 | 0.36 | 0.735 | 0.704
19 | NCI-H1395 | 0.576 | 0.579 | 0.658 | 0.636 | 0.564 |  |  |  |  |  | 0.765 | 0.698 | 0.795 | 0.739 | 0.791 | 0.727 | 0.561 | 0.668 | 0.665
20 | A549 |  |  |  |  |  | 0.741 | 0.663 | 0.746 | 0.754 | 0.777 | 0.261 | 0.216 | 0.327 | 0.278 | 0.338 |  |  |  | 
21 | NCI-H1563 | 0.754 | 0.799 | 0.797 | 0.752 | 0.704 | 0.867 | 0.855 | 0.906 | 0.804 | 0.914 |  |  |  |  |  | 0.721 | 0.599 | 0.609 | 0.631
